# Results from a melting point compilation (Tetko et al.; mined from patent text by program, amines drawn as free bases though some values may be those of a salt).
row,melting point [°C],SMILES
1,210,COCc1nc2c(OC)ccc(C(O)(Cc3ccncc3)Cc3ccncc3)c2[nH]1
2,203 to 205,COc1ncc(-c2cc(C=CC(=O)c3ccc(C(=O)O)cc3)c(OC)cc2OC)c(OC)n1
3,196 to 198,COc1cc2nc(N3CCN(C(=O)C=Cc4ccc(Cl)c(Cl)c4)CC3)nc(N)c2cc1OC
4,160 to 162,Cc1c(O)ccc2c1OCC1c3ccccc3OC21 (stereo not given)
5,104 to 108,CCc1nc2c(OCc3ccccc3)cc(C(=O)N(C)C)cc2n1C
6,161,c1ccc(C(c2ccccc2)(c2cncnc2)n2ccnc2)cc1
7,178 to 180,CCCCc1nc2c(N)nc3ccccc3c2n1CCCC(=O)c1ccccc1
8,215 to 217,COC(=O)c1ccc(OC(=O)c2cccc(C(=O)Oc3ccc(C(=O)OC)cc3)c2)cc1
9,64 to 65,CCCCNC(=O)c1nc2cnn(CC)c2nc1C
10,87 to 89,Nc1sc2c(c1C(=O)c1ccc(Br)s1)CCN(Cc1ccccc1)C2
11,65 to 66,COc1cc(OC)c(F)c(NCc2ccccc2)c1F
12,171 to 182,Cc1c(NC(=O)NCC(C)O)c(C)c2c(c1-c1ccccc1)OCC2c1ccc(C(C)C)cc1 (stereo not given)
13,148 to 149,Cc1oc(-c2ccccc2)nc1CCOc1ccc(COc2nn(C)cc2CC(=O)O)cc1
14,95,CC(C)c1ccc(C(=O)c2ccc([N+](=O)[O-])cc2)cc1
15,163 to 165,O=c1c2ccc(Cl)cc2n(Cc2ccccc2)n2cccc12
16,162 to 164,CSC(=N)N(C#N)C(c1ccccn1)c1ccccc1C (stereo not given)
17,192 to 194,CC(C)(C)C(CO)NC(=O)C(CC(=O)O)n1ccc(-c2ccc(-c3ccc(C(N)=O)cc3)cc2)c1 (stereo not given)

# More lines, now with the values behind:
row,SMILES,melting point [°C]
1,COc1ccc(C(C)(O)Cn2cc[nH]c2=O)cc1OC1CCCC1 (stereo not given),136
2,CC(=O)Nc1nc(-c2cc(Cl)nc(Cl)c2)cs1,301
3,C#Cc1cn(C2CC(O)C(CO)O2)c(=O)n(C(=O)c2ccc(C)cc2)c1=O (stereo not given),176 to 179
4,Cc1cccc(N2C(=S)SCC2(O)CC(C)C)n1 (stereo not given),95
5,CC1=CCc2cccc(OCC3CN(C(C)C)CCO3)c21 (stereo not given),114 to 116
6,CC(=Cc1cc(Br)ccc1O)[N+](=O)[O-],95 to 97
7,Cc1c(C)c2c(c(C)c1O)SC(C)(C)O2,62 to 64.5
8,Cc1ccc(C(=O)c2cnoc2C2CC2)cc1S(C)(=O)=O,126 to 128
9,Fc1cccc(F)c1C1=NC(c2ccc(OCc3ccc(Cl)cc3Cl)cc2)CO1 (stereo not given),104
10,COc1ccc(F)cc1OCC=O,92.5 to 95
11,Cc1nc(-c2ccc(N3CCN(C)CC3)c([N+](=O)[O-])c2)sc1C(=O)O,218 to 220
12,O=C(O)CNC(=O)c1c(O)n(C2CCCCC2)c(=O)n(C2CCCC2)c1=O,222 to 224
13,COc1ccc(CCNC(=O)C(F)(F)F)cc1OC,93
14,CC(C#N)(C#N)Cc1ccc(Cl)cc1,91.1
15,COc1ccc(CC#N)cc1OC1CCCC1,32 to 34
16,Cc1cc(C)c(Nc2nc(C)ccc2S(=O)(=O)c2ccc(F)c(Cl)c2)c(C)c1,139 to 141
17,Cc1cc(=O)n(-c2cc(C(=O)O)c(Cl)cc2F)c(=O)n1C(F)F,247 to 248
18,O=C1C=CC(O)(c2nccs2)C=C1,138 to 139
19,COc1ccc(N2CCN(c3c(C)c4c(c(C(C)=O)c3C)OC(C)(C)C4)CC2)cc1,156 to 159
20,CC(C)(C)OC(=O)NOCCC(=O)Oc1c(F)c(F)c(F)c(F)c1F,58 to 59
21,CCOC(=O)C1CCCCN1C(=O)/C=C/c1ccc(Sc2ccc3c(c2)OCCO3)c([N+](=O)[O-])c1 (stereo not given),74 to 75
22,CC(C)CCOC(=O)C(C)Oc1cc(-c2nn(C)c(C(F)(F)F)c2Cl)c(F)cc1Cl (stereo not given),128
23,O=C(O)c1cn(CC2CC2)c2cc(Cl)ccc12,219 to 220
